#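 A five-concentration, 48-hour dose response in 96-well plates underlies each endpoint, interpolated linearly between surrounding concentrations. GI50 is the concentration that inhibits growth by half.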 Activity calls are given as the source filed them. Cut-off read from the data, not from the text of the source: active = GI50 up to about 1.1 µM and inactive = higher.
# Assays:
# Assay in all cases: inhibition of tumour cell growth, NCI panel, 48 h
# [1] = system: 786-0
# [2] = system: A549
# [3] = system: ACHN
# [4] = system: CCRF-CEM
# [5] = system: COLO 205
# [6] = system: DLD-1
# [7] = system: DMS-114
# [8] = system: DMS-273
# [9] = system: EKVX
# [10] = system: HCC 2998
# [11] = system: HCT-116
# [12] = system: HL-60
# [13] = system: HOP-18
# [14] = system: HOP-62
# [15] = system: HOP-92
# [16] = system: HT-29
# [17] = system: IGROV-1
# [18] = system: K562
# [19] = system: KM-20L2
# [20] = system: KM12
# [21] = system: LOX IMVI
# [22] = system: LXFL 529
# [23] = system: M14
# [24] = system: M19-MEL
# [25] = system: MOLT-4
# [26] = system: Malme-3M
# [27] = system: NCI-H226
# [28] = system: NCI-H23
# [29] = system: NCI-H460
# [30] = system: NCI-H522
# [31] = system: OVCAR-3
# [32] = system: OVCAR-8
# [33] = system: RPMI-8226
# [34] = system: RXF 393
# [35] = system: SF-268
# [36] = system: SF-295
# [37] = system: SF-539
# [38] = system: SK-MEL-28
# [39] = system: SK-MEL-2
# [40] = system: SK-MEL-5
# [41] = system: SK-OV-3
# [42] = system: SN12C
# [43] = system: SNB-19
# [44] = system: SNB-75
# [45] = system: SNB-78
# [46] = system: SW-620
# [47] = system: TK-10
# [48] = system: U-251
# [49] = system: UACC-257
# [50] = system: UACC-62
# [51] = system: UO-31
# [52] = system: XF498
# [53] = system: A498
# [54] = system: CAKI-1
# [55] = system: HCT-15
# [56] = system: MCF7
# [57] = system: NCI/ADR-RES
# [58] = system: OVCAR-4
# [59] = system: OVCAR-5
smiles,measurement,setting,value
C#C[C@]1(O)CCC2C3CCc4cc(Oc5nc(F)nc(-c6c7cc8ccccc8cc7c7n6CCS7)n5)ccc4C3CCC21C (stereo partly specified),GI50,[1],51.8 µM (inactive)
same,GI50,[2],41.3 µM (inactive)
same,GI50,[3],> 100 µM (inactive)
same,GI50,[4],49.3 µM (inactive)
same,GI50,[5],20.6 µM (inactive)
same,GI50,[6],54.6 µM (inactive)
same,GI50,[7],21.5 µM (inactive)
same,GI50,[8],23.8 µM (inactive)
same,GI50,[9],11.4 µM (inactive)
same,GI50,[10],85.5 µM (inactive)
same,GI50,[11],33 µM (inactive)
same,GI50,[12],36.7 µM (inactive)
same,GI50,[13],> 100 µM (inactive)
same,GI50,[14],43.3 µM (inactive)
same,GI50,[15],> 100 µM (inactive)
same,GI50,[16],26.2 µM (inactive)
same,GI50,[17],50.7 µM (inactive)
same,GI50,[18],37.7 µM (inactive)
same,GI50,[19],32.7 µM (inactive)
same,GI50,[20],33.1 µM (inactive)
same,GI50,[21],43 µM (inactive)
same,GI50,[22],39.5 µM (inactive)
same,GI50,[23],29.2 µM (inactive)
same,GI50,[24],30.3 µM (inactive)
same,GI50,[25],49.8 µM (inactive)
same,GI50,[26],53.6 µM (inactive)
same,GI50,[27],> 100 µM (inactive)
same,GI50,[28],54.1 µM (inactive)
same,GI50,[29],33.1 µM (inactive)
same,GI50,[30],21.3 µM (inactive)
same,GI50,[31],44.7 µM (inactive)
same,GI50,[32],53.8 µM (inactive)
same,GI50,[33],41.5 µM (inactive)
same,GI50,[34],28.1 µM (inactive)
same,GI50,[35],56.9 µM (inactive)
same,GI50,[36],34 µM (inactive)
same,GI50,[37],30.1 µM (inactive)
same,GI50,[38],48.9 µM (inactive)
same,GI50,[39],28.8 µM (inactive)
same,GI50,[40],25.4 µM (inactive)
same,GI50,[41],45.4 µM (inactive)
same,GI50,[42],41.5 µM (inactive)
same,GI50,[43],> 100 µM (inactive)
same,GI50,[44],32.9 µM (inactive)
same,GI50,[45],> 100 µM (inactive)
same,GI50,[46],44.3 µM (inactive)
same,GI50,[47],71.3 µM (inactive)
same,GI50,[48],39.4 µM (inactive)
same,GI50,[49],77.6 µM (inactive)
same,GI50,[50],20.8 µM (inactive)
same,GI50,[51],> 100 µM (inactive)
same,GI50,[52],> 100 µM (inactive)
OC[C@H]1O[C@@H](n2cnc3cncnc32)[C@H](O)[C@@H]1O [NEBULARINE],GI50,[53],1.52 µM (inactive)
same,GI50,[2],0.904 µM (active)
same,GI50,[54],0.423 µM (active)
same,GI50,[4],1.32 µM (inactive)
same,GI50,[5],0.417 µM (active)
same,GI50,[6],0.536 µM (active)
same,GI50,[7],1.21 µM (inactive)
same,GI50,[8],0.59 µM (active)
same,GI50,[9],0.605 µM (active)
same,GI50,[10],0.989 µM (active)
same,GI50,[11],0.321 µM (active)
same,GI50,[55],0.692 µM
same,GI50,[12],0.326 µM (active)
same,GI50,[13],2.62 µM (inactive)
same,GI50,[14],2.45 µM (inactive)
same,GI50,[15],0.656 µM (active)
same,GI50,[16],0.377 µM (active)
same,GI50,[17],0.64 µM (active)
same,GI50,[18],0.679 µM (active)
same,GI50,[19],1.04 µM (active)
same,GI50,[20],1.01 µM (active)
same,GI50,[21],0.977 µM (active)
same,GI50,[24],3.27 µM (inactive)
same,GI50,[56],0.307 µM (active)
same,GI50,[25],1.26 µM (inactive)
same,GI50,[26],2.03 µM (inactive)
same,GI50,[27],1.34 µM (inactive)
same,GI50,[28],1.75 µM (inactive)
same,GI50,[29],0.593 µM (active)
same,GI50,[30],2.1 µM (inactive)
same,GI50,[57],0.69 µM (active)
same,GI50,[31],1.65 µM (inactive)
same,GI50,[58],1.12 µM (inactive)
same,GI50,[59],1.4 µM (inactive)
same,GI50,[32],1.17 µM (inactive)
same,GI50,[33],0.714 µM (active)
same,GI50,[34],1.31 µM (inactive)
same,GI50,[35],1.09 µM (active)
same,GI50,[36],2 µM (inactive)
same,GI50,[37],1.43 µM (inactive)
same,GI50,[38],1.39 µM (inactive)
same,GI50,[39],1.67 µM (inactive)
same,GI50,[40],1.67 µM (inactive)
same,GI50,[41],0.953 µM (active)
same,GI50,[42],1.4 µM (inactive)
same,GI50,[43],1.45 µM (inactive)
same,GI50,[44],0.628 µM (active)
same,GI50,[45],4.02 µM (inactive)
same,GI50,[46],0.462 µM (active)
same,GI50,[48],1.63 µM (inactive)
same,GI50,[49],1.61 µM (inactive)
same,GI50,[50],1.16 µM (inactive)
same,GI50,[51],1.28 µM (inactive)
same,GI50,[52],< 0.01 µM (active)

# From ChEMBL document CHEMBL1201862, “PubChem BioAssay data set” (2004)
